PubChem BioAssay AID1996
In brackets after ≈: the same amount, converted by molar mass.

conditions: buffer; pH 7.4; 200.0 µM

| SMILES | solubility kinetic |
| --- | --- |
| Cc1ccc[n+](CC(=O)Nc2ccc(N(C)C)cc2)c1.[Cl-] | > 45.9 µg/mL |
| O=C(c1cc(-c2ccncc2)nc2ccccc12)N1CCN(Cc2ccccc2)CC1 | > 61.3 µg/mL |
| CNc1ccc(C(=O)c2ccccc2C(=O)O)cc1[N+](=O)[O-] | > 45 µg/mL |
| O=C(COC(=O)c1cc(Cl)ccc1O)Nc1ccccc1C(=O)NC1CC1 | 2 µg/mL (≈ 5.14 µM) |
| COc1ccc(C(=O)NCC(=O)NCc2ccncc2)cc1 | > 44.9 µg/mL |
| Cc1ccc(CN2C(=O)CSC2c2ccccc2F)cc1 (stereo not given) | 14 µg/mL (≈ 46.5 µM) |
| C=CCNC(=O)c1ccc(NC(=O)C2=CSCCO2)cc1 | > 45.7 µg/mL |
| CCCn1c(O)c(N=N)c2ccccc21 | > 30.5 µg/mL |
| CCCCCCc1ccc(OC(=O)c2ccncc2)cc1 | 0.7 µg/mL (≈ 2.47 µM) |
| O=C(Cc1ccc(F)cc1)NCCc1cnc[nH]1 | > 37.1 µg/mL |
| CCn1c(CNC(=O)C2CCCCC2)cc2cc(C)ccc21 | < 0.3 µg/mL |
| COc1ccc2oc(C(=O)NCCC(C)C)c(C)c2c1 | 1.8 µg/mL (≈ 6.54 µM) |
| O=C(NC(=S)Nc1cccc([N+](=O)[O-])c1)C1CCCC1 | 2.6 µg/mL (≈ 8.86 µM) |
| CCCCCOC(=O)NC1CCS(=O)(=O)C1 (stereo not given) | > 37.4 µg/mL |
| O=C(NC1CC1)C1CCCN(C(=O)NC2CCCCC2)C1 (stereo not given) | > 44 µg/mL |
| Oc1ccc(Br)cc1C1Nc2ccccc2S1 (stereo not given) | < 0.7 µg/mL |
| NC(=O)c1ccsc1NC(=O)COC(=O)c1ccccn1 | > 45.8 µg/mL |
| CCOC(=O)c1cc(NC(=O)CCC(=O)O)ccc1N1CCCCC1 | 51.3 µg/mL (≈ 147 µM) |
| Cc1nc(NS(=O)(=O)c2cccc([N+](=O)[O-])c2)sc1C(C)(C)C | 5.4 µg/mL (≈ 15.2 µM) |
| CNS(=O)(=O)c1cccc(C(=O)OCC(=O)N2CCN(C(=O)c3ccco3)CC2)c1 | > 65.3 µg/mL |
| Cc1ccc(NC(=O)c2cc(C)nc3ccccc23)cc1 | 2.1 µg/mL (≈ 7.6 µM) |
| O=C(OCCN1C(=O)c2ccccc2C1=O)[C@@H]1CC(O)CN1S(=O)(=O)c1ccccc1[N+](=O)[O-] (stereo not given in full) | > 73.4 µg/mL |
| Br.COc1ccc(-c2nc3n(c2C)CCC3)cc1 | > 46.4 µg/mL |
| Brc1ccc(-n2cnc(-c3ccccc3)c2)cc1 | 1 µg/mL (≈ 3.34 µM) |

| SMILES | solubility kinetic |
| --- | --- |
| O=C(NCCNCc1cccs1)c1ccccc1F | 37.6 µg/mL (≈ 135 µM) |
| CN(C)CCn1c(=S)[nH]c2ccc(Cl)cc2c1=O | > 42.6 µg/mL |
| CC(C)=NN1C(c2nonc2N)=NOC1(C)C | > 35.7 µg/mL |
| Brc1cc2c(cc1CSc1ncccn1)OCO2 | 0.9 µg/mL (≈ 2.77 µM) |
| COCCNC(=O)/C(C#N)=C/c1cccs1 | > 35.4 µg/mL |
| CCC1(C)Cc2c(sc3[nH]c(=S)[nH]c(=S)c23)CO1 (stereo not given) | 27.7 µg/mL (≈ 92.8 µM) |
| CN(C)CC/C=C1\c2cc(Cl)ccc2Sc2cc(F)c(F)cc21.Cl | 21.8 µg/mL |
| Cc1cc(OCC(=O)N2CCN(CC(=O)N3CCOCC3)CC2)c(C(C)C)cc1Cl | > 65.7 µg/mL |
| CC(=O)Nc1ccc(NC(=O)c2ccc(OCc3c(C)noc3C)cc2)cc1 | 2.2 µg/mL (≈ 5.8 µM) |
| O=C(O)C1CCCN1C(=O)C12CC3CC(CC(C3)C1)C2 (stereo not given) | > 41.6 µg/mL |
| CCN(CC)S(=O)(=O)c1ccc(NCc2ccccn2)nc1 | > 48.1 µg/mL |
| COc1ccc(C(=O)OC2CC3CCC(C2)[N+]3(C)[O-])cc1OC (stereo not given) | 47.8 µg/mL (≈ 149 µM) |
| COc1ccc(CC(=O)Nc2ccc(OC(C)=O)cc2C(=O)O)cc1 | > 51.5 µg/mL |
| O=C(COC(=O)c1c(F)cccc1F)Nc1ccc(N2CCCCC2)cc1 | 5.2 µg/mL (≈ 13.9 µM) |
| COc1ccc(OC)c(-n2c(C)cc(C=O)c2C)c1 | > 38.9 µg/mL |
| Cc1ccc(NC(=O)CCNC(=O)c2ccco2)cc1F | > 43.5 µg/mL |
| Cc1cccc(C)c1NC(=S)N(CCN(C)C)C(C)c1ccccn1 (stereo not given) | > 53.5 µg/mL |
| C=CCN1C(=O)C2(OCCO2)c2cc(C)ccc21 | > 36.8 µg/mL |
| CN1CCCN(C(=O)COc2ccc(F)cc2Cl)CC1 | > 45.1 µg/mL |
| C=C1CCc2c([nH]c3ccc(OCC(C)C)cc23)C1=O | 0.8 µg/mL (≈ 2.97 µM) |
| CCc1ccc(NC(=S)NCc2cccnc2)cc1 | 36.9 µg/mL (≈ 136 µM) |
| Nc1c(C(=O)N2CCCC2)sc2nc3c(cc12)CCCCCC3 | 3.2 µg/mL (≈ 9.71 µM) |
| Cc1ccsc1C1C(C#N)=C(N)OC2=C1C(=O)CC(C)C2 (stereo not given) | 38.7 µg/mL (≈ 129 µM) |
| CCN(C(=O)COC(=O)c1nccnc1N)c1cccc2ccccc12 | > 52.6 µg/mL |

| SMILES | solubility kinetic |
| --- | --- |
| O=C(Nc1ccccc1F)c1ccc(-c2cccc([N+](=O)[O-])c2)o1 | 2 µg/mL (≈ 6.13 µM) |
| COc1ccccc1CCNS(=O)(=O)c1ccc(C(=O)O)n1C | > 50.8 µg/mL |
| COc1ccc(NC(=O)c2oc3ccccc3c2CSC)cn1 | 3 µg/mL (≈ 9.14 µM) |
| Cc1ccc(NC(=S)NC2CCSc3ccccc32)cc1 (stereo not given) | 2.7 µg/mL (≈ 8.59 µM) |
| O=C(Nc1cccc([N+](=O)[O-])c1)NC1CCS(=O)(=O)C1 (stereo not given) | > 44.9 µg/mL |
| COc1cc(N2C(=O)CSC2=S)cc(OC)c1OC | 41 µg/mL (≈ 137 µM) |
| Cc1nc2ccccc2c2c(N)c3ccccc3n12 | 16.4 µg/mL (≈ 66.3 µM) |
| Cn1c(=O)oc2cc(S(=O)(=O)Nc3ccc(F)cc3)ccc21 | 7.2 µg/mL (≈ 22.3 µM) |
| Cc1ccc(F)cc1NS(=O)(=O)c1ccc(Cl)s1 | > 45.9 µg/mL |
| CCOC(=O)CCCCNC(=O)Nc1ccccc1 | > 39.6 µg/mL |
| O=C(CSc1ncccn1)NCc1ccc2c(c1)OCO2 | > 45.5 µg/mL |
| O=Cc1ccc(-c2ccc([N+](=O)[O-])cc2Cl)o1 | 5.2 µg/mL (≈ 20.7 µM) |
| CCOC(=O)c1sc(N)c(C#N)c1COC(=O)C1=COCCO1 | 11.6 µg/mL (≈ 34.3 µM) |
| O=C(NCCNC(=O)c1ccccn1)c1ccccc1 | 36 µg/mL (≈ 134 µM) |
| S=C(NCc1ccccc1)N1CCn2cccc2C1c1ccncc1 (stereo not given) | 45.2 µg/mL (≈ 130 µM) |
| Cc1cc[n+](-c2ccccc2)c2ccccc12.[Cl-] | 17.3 µg/mL |
| O=C(NC(=S)N1CCCCC1)c1csc([N+](=O)[O-])c1 | > 44.9 µg/mL |
| CCC(Oc1ccccc1F)C(=O)NCCN1CCOCC1 (stereo not given) | 44.3 µg/mL (≈ 143 µM) |
| Cc1ccc(C(=O)Nc2ccc(Nc3ccccc3)cc2)c(Cl)c1 | < 0.4 µg/mL |
| O=C(Cc1ccc(Cl)cc1Cl)NCc1cccnc1 | > 44.3 µg/mL |
| CCCc1cc(=O)c2ccc(OC/C(C)=N/O)cc2o1 | 38.3 µg/mL (≈ 139 µM) |
| Cc1ccc(NC(=O)COC(=O)C2CCC2)cc1S(=O)(=O)N1CCOCC1 | > 59.5 µg/mL |
| CSCC[C@H](NC(=O)Nc1ccc(Oc2ccccc2)cc1)C(=O)O | > 54.1 µg/mL |
| Cc1ccc(Nc2nc(C)c3c(n2)CC(C)CC3=O)c(C)c1 (stereo not given) | 1.7 µg/mL (≈ 5.76 µM) |

| SMILES | solubility kinetic |
| --- | --- |
| CCOC(=O)c1cc(NCc2cccs2)ccc1N1CCOCC1 | 50.4 µg/mL (≈ 145 µM) |
| CCOC(=O)c1c(C)n(CC)c2c1cc(O)c1ccccc12 | < 0.6 µg/mL |
| COc1ccccc1N1CCN(C(=O)c2cc3cc(F)ccc3[nH]2)CC1 | 0.7 µg/mL (≈ 1.98 µM) |
| CSc1ccccc1-c1nc(-c2ccncc2)no1 | 1.2 µg/mL (≈ 4.46 µM) |
| O=C(O)C1CCN(C(=O)c2ccc3c(c2)OCO3)CC1 | 36.2 µg/mL (≈ 131 µM) |
| COC(=O)CCC(=O)N1CCCC(CO)(Cc2ccccc2F)C1 (stereo not given) | > 50.6 µg/mL |
| O=C1NC(=S)NC(=O)C1C1CCCCC1 | 30.1 µg/mL (≈ 133 µM) |
| CC(C)c1ccc(OCc2ccc(C(=O)N(C)C)o2)cc1 | 33.2 µg/mL (≈ 116 µM) |
| Cc1nc2ccc(C(=O)Nc3ccccc3Cl)cc2s1 | 14.2 µg/mL (≈ 46.9 µM) |
| COc1ccccc1OCCCOc1cccc(/C=C2\SC(=O)NC2=O)c1 | < 0.8 µg/mL |
| Cc1ccc(S(=O)(=O)Nc2c(C)cc(C)nc2Cl)cc1 | > 46.6 µg/mL |
| Cc1nc(NC(=S)NC(=O)c2ccccc2)sc1C | 0.3 µg/mL (≈ 1.03 µM) |
| CCCc1cc(=O)[nH]c(SCC(=O)Nc2sc3c(c2C(N)=O)CCCC3)n1 | 9 µg/mL (≈ 22.1 µM) |
| O=C(Nc1ccc(F)cc1)c1cc2ccccc2o1 | 1.9 µg/mL (≈ 7.44 µM) |
| Cc1cc2oc(=O)cc(C)c2cc1NC(=O)CCl | 39.4 µg/mL (≈ 148 µM) |
| Cc1c(C(=O)N2CCCCC2)oc2ccccc12 | 32 µg/mL (≈ 132 µM) |
| Cc1ccc(NS(=O)(=O)c2ccc(F)cc2)nc1 | 34.4 µg/mL (≈ 129 µM) |
| O=C(OCC(=O)N1CCCCC1)c1cc(=O)[nH]c2ccccc12 | > 47.2 µg/mL |
| C#CCN(C)CCCOc1ccc(Cl)cc1Cl.Cl | 8.7 µg/mL |
| CC(=O)N(CCc1ccccc1)Cc1cc2ccc(C)c(C)c2[nH]c1=O | 17.4 µg/mL (≈ 49.9 µM) |
| O=C(C[n+]1ccccc1)Nc1ccccc1C(F)(F)F.[Cl-] | > 47.5 µg/mL |
| COc1ccccc1C1N=C(c2ccccc2C)NO1 (stereo not given) | 24 µg/mL (≈ 89.4 µM) |
| O=C(N/N=C1\CC2CC=CC12)c1ccc(Br)cc1 (stereo not given) | > 45.8 µg/mL |
| O=C(N/N=C/c1cccnc1)c1cccc(Cl)c1 | > 39 µg/mL |

| SMILES | solubility kinetic |
| --- | --- |
| CC1CCCN(C(=O)CCNC(=O)c2ccccc2Cl)C1 (stereo not given) | > 46.3 µg/mL |
| O=C1[C@@H]2CSCN2C(=O)CN1Cc1ccc(F)cc1 | > 42 µg/mL |
| COCC(C)n1c(SCC(=O)NC(=O)NCc2ccccc2)nc2ccccc2c1=O (stereo not given) | 2.7 µg/mL (≈ 6.13 µM) |
| O=C(CN1CCN(Cc2ccccc2)CC1)Nc1nc2ccccc2s1 | 47.4 µg/mL (≈ 129 µM) |
| O=S1(=O)CCN(OCc2ccc(Cl)cc2)CC1 | > 41.4 µg/mL |
| CCC(=O)c1ccc(OCC(=O)NC2CCN(Cc3ccccc3)CC2)cc1 | > 57.1 µg/mL |
| Cc1nc(Nc2cccc(F)c2)c2oc3ccccc3c2n1 | < 0.2 µg/mL |
| CCOc1cccc(/C=C/c2ccc3cccc(O)c3n2)c1O | < 0.7 µg/mL |
| CC1CCCN(CC(=O)NC(=O)NC2CCCCC2)C1 (stereo not given) | > 42.2 µg/mL |
| CC1CC(C)(C)NC(=S)N1CCC(=O)N1CCc2ccccc2C1 (stereo not given) | 38.8 µg/mL (≈ 112 µM) |
| CC(=O)N(C)N(C)c1cc(C)nc(N)n1 | > 31.4 µg/mL |
| C/C=C/c1ccc(OCc2cc(=O)n3cc(C)ccc3n2)c(OC)c1 | 9.1 µg/mL (≈ 27.1 µM) |
| Cc1ccc2c(c1)N=C(c1ccccc1)CC(C(Cl)Cl)=N2 | 7.1 µg/mL (≈ 22.4 µM) |
| Cc1onc(-c2ccccc2)c1C(=O)N=C(N)c1ccc(C(F)(F)F)cc1 | < 0.3 µg/mL |
| Cc1noc(C)c1S(=O)(=O)NCc1cccc(Cl)c1 | > 45.1 µg/mL |
| CC(C)CCn1cnc2c1c(=O)[nH]c(=O)n2Cc1ccccc1 | 29.8 µg/mL (≈ 95.4 µM) |
| CCOC(=O)[C@H](CCc1ccccc1)N[C@@H](C)C(=O)N1Cc2ccccc2C[C@H]1C(=O)O.Cl | > 71.2 µg/mL |
| CN(Cc1c(O)ccc2c1oc(=O)c1ccccc12)C1CCCCC1 | > 50.6 µg/mL |
| O=C(NC(=S)NC1CCS(=O)(=O)C1)c1ccccc1 (stereo not given) | > 44.8 µg/mL |
| C=CCOc1ccc(/C=C2/C(=O)ON=C2C)cc1OC | 26.2 µg/mL (≈ 95.9 µM) |
| O=C(O)CC(NCc1ccco1)C(=O)OCCCl (stereo not given) | > 41.4 µg/mL |
| Cc1ccc(S(=O)(=O)N2CC(C(=O)O)Oc3ccccc32)cc1 (stereo not given) | > 50 µg/mL |
| COc1ccc(OC)c(NC(=O)CCC(=O)Oc2ccc(C)cc2)c1 | 49.1 µg/mL (≈ 143 µM) |
| COc1ccc(S(=O)(=O)N2CCc3ccccc32)cc1C(=O)N1CCC(C)CC1 | 57.8 µg/mL (≈ 139 µM) |
